Laboratory results taken from publication PMC7376644 (Pharmacology Research & Perspectives, 2020).
Where “and” joins values, the source holds several entries; their conditions need not be identical. Identical values can stand only once. Like-named read-outs stand apart in the source and are kept apart here.

What was measured:
[1] = Intrinsic clearance, substrate depletion approach; format: in vitro ADME, human; conditions: human, human liver microsomes, pH 7.4; HLM, 1 µmol/L substrate
Description: (§1) The generic conditions were previously described by Masimirembwa and co‐workers. ^24 , ^25 Each reaction mixture consisted of substrate incubated with appropriate enzyme, substrate, and NADPH in potassium phosphate buffer pH 7.4 in a final volume of 200 µL. The substrate was diluted to 40% ACN so that the percent organic component in the final solution was maintained at 1%. The reactions were quenched with 3 volumes of stop solution containing ACN and 0.8% formic acid at 0, 5, 10, 20, 30, 40, and 60 minutes. This was followed by centrifugation at 4500 g for 20 minutes. An aliquot (50 µL) supernatant was collected and diluted (1:1) in water prior to LC‐MS/MS analysis.
(§2) Each reaction was monitored over 7 time points.
(§3) The well‐stirred model was used to estimate the hepatic clearance (CLH) due to metabolism.

[2] = test system: HLM; experiment: Intrinsic clearance, substrate depletion approach; format: in vitro ADME, human; conditions: HLM, substrate depletion
Description: as §1, §2, §3

[3] = target: CYP2D6 (Homo sapiens, UniProt P10635); experiment: in vitro; conditions: recombinant CYP2D6, pH 7.4
Chain of CYP2D6 (P10635 whole entry): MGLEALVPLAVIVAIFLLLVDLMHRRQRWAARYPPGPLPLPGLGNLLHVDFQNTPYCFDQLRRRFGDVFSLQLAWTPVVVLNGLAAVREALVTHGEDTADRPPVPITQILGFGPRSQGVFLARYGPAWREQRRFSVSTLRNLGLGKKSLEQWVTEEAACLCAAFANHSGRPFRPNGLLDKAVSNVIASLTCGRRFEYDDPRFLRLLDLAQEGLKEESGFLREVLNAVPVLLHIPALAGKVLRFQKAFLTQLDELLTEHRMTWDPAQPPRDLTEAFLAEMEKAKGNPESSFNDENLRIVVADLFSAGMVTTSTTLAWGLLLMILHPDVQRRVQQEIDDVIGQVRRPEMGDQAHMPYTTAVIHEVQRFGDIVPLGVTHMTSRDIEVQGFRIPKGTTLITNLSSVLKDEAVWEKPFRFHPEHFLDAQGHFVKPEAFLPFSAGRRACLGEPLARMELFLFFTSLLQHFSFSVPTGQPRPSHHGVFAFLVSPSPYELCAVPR

[4] = target: T1, CYP1A2 (Homo sapiens, UniProt P05177); experiment: Intrinsic clearance, substrate depletion approach; conditions: rCYP1A2, substrate depletion
T1 sequence (P05177 1-516): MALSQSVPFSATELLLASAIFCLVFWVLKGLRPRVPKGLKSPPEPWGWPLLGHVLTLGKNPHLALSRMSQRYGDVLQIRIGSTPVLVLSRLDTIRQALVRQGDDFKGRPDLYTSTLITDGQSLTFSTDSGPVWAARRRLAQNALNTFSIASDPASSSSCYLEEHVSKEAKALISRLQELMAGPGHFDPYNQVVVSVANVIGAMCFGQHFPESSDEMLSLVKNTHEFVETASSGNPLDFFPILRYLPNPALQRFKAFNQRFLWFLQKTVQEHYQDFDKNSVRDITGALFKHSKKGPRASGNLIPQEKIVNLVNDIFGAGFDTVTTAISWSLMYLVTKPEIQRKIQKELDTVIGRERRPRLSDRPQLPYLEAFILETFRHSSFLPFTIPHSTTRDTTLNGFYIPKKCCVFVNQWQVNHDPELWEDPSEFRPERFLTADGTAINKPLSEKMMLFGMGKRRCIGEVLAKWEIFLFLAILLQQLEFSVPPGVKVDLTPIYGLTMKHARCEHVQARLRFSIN

[5] = Simcyp prediction of total hepatic clearance; parameters: species or system human
Description: The clearance of the incubation mixture was expressed as μL/min/pmol for rCYP.
as §3

[6] = target: CYP2C19 (Homo sapiens, UniProt P33261); experiment: Enzyme kinetics of hydroxylated metabolites formation; format: in vitro ADME; parameters: purchased CYPEX CYP008; host or cells: Escherichia coli; conditions: CYP2C19, formation of cis‐4‐OH‐PZQ
Chain of CYP2C19 (P33261 whole entry): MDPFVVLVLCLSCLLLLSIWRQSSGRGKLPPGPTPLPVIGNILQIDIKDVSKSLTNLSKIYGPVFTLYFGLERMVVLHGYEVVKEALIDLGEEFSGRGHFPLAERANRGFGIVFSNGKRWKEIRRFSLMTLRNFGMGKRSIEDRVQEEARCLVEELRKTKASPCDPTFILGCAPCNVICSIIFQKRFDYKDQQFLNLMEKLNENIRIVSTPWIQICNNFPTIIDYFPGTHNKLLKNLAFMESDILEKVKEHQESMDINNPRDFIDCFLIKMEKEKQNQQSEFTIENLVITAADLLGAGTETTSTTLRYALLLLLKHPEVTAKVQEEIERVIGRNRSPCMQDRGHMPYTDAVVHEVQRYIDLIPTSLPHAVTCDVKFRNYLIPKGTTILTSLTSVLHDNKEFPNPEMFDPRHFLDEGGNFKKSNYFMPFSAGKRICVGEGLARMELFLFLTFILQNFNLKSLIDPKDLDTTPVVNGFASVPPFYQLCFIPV
Description: The reactions were carried out in duplicate at each time point. Incubation conditions used for the determination of K M and V max were optimized for linearity with respect to time and protein concentrations. […] Metabolites were analyzed by LC‐MS/MS as described below. The K M and V max values of each marker substrate were determined using nonlinear least squares regression analysis in GraFit software (version 3.0, Erithacus Software Limited) and SigmaPlot Enzyme Kinetics Module for Windows 7.0 (SPSS, Inc).
as §3

[7] = PZQ-ketoconazole DDI pharmacokinetic study in healthy volunteers; format: in vivo, human; conditions: for AUC(0-inf) / AUC / CL/F / k el / half-life / Tmax / Vd/F: male, human, plasma
Description: Plasma samples were obtained from the AiBST biobank. […] Each participant served as their own control. Each participant provided written informed consent to take part in the study and the study was carried out according to Helsinki Declaration of 1975, as revised in 2008. The study was approved by the Medical Research Council of Zimbabwe (MRCZ) and the Medicines Controls Authority of Zimbabwe (MCAZ). […] The samples were vortexed for 30 seconds and left under gentle agitation for 25 minutes. […] From the supernatant, 20 μL was injected onto the chiral HPLC system for analysis. […] Detection was done using a UV diode array detector at 210 nm. […] The data were gathered and processed using Agilent OpenLab CDS for Chemstation software version 1.9. Linear calibration curves were plotted as concentration vs peak area ratio for analyte to IS with no weighting. […] The pharmacokinetic (PK) analysis was performed using the WinNonlin program, version 8.2 (Pharsight Corp). […] A non-compartmental approach was used for curve plotting and parameter calculation. The area under the curve (AUC) from time 0 to the last sampling time point (AUCt) was computed using the log-linear trapezoidal rule. The linear trapezoidal rule was used for the ascending part of the PK curve, while the log trapezoidal rule was used for the descending part of the graph. The AUC extrapolated to infinite time was calculated as AUC∞ = AUCt + Ct/K el where Ct is the concentration of the last sample taken and K el is the terminal elimination rate constant. The terminal elimination rate constant K el was determined by least squares regression analysis in the terminal phase of the semi log concentration-time curve. […] Statistical analysis was performed using the GraFit software (version 3.0, Erithacus Software Limited). […] Analysis of variance (ANOVA) was performed on the AUC and C max after transformation of the data to their natural logarithmic (ln) values.

[8] = PZQ + ketoconazole vs PZQ alone
[9] = PZQ + ketoconazole vs PZQ alone, listed as S‐Praziquantel
[10] = single oral 20 mg/kg PZQ alone, n = 9, listed as S‐Praziquantel, 20 mg/kg

With `O=C(C1CCCCC1)N1CC(=O)N2CCc3ccccc3[C@H]2C1` [S‐PZQ, S‐Praziquantel] the half-life at 1 µmol/L [1] was 0.492 h, the “Predicted CLuH,int” value [2] was 97.50 mL/min/kg and the “Predicted CLH” value ([2]; well‐stirred model) was 10.78 mL/min/kg. The half-life at 1 µmol/L [3] was 0.755 h, the “Predicted CLH” value [4] was 2.877 mL/min/kg and the “Predicted CLuH,int” value [4] was 13.07 mL/min/kg. The “Predicted total CLH (Simcyp)” value ([5]; metabolite formation assay) was 10.144 mL/min/kg, the “Predicted total CLH (Simcyp)” value ([5]; substrate depletion assay) was 6.265 mL/min/kg and the “CLuH,int” value [6] was 2.44 mL/min/kg and 2.440 mL/min/kg. For the same compound, the “Clearance/F, treatment mean (SD)” value ([7]; 20 mg/kg PZQ plus 200 mg ketoconazole, n = 9) was 211.5 (74.47) L/h, the “AUCinf, difference observed %” value [7, 8] was 68% and the “AUCt0‐tlast, difference observed %” value [7, 8] was 56.09%. For the same compound, the “C max, difference observed %” value [7, 8] was 107.11%, the “Clearance/F, difference observed %” value [7, 8] was −37.81% and the “Half life, difference observed %” value [7, 8] was 31.52%. The “AUCinf, difference observed %” value [7, 9] was 67.71%, the “C max, difference observed %” value [7, 9] was 107.1% and the AUC(0-inf) ([7]; oral, 20 mg/kg, 20 mg/kg PZQ plus 200 mg ketoconazole, n = 9, read-out: AUCinf, treatment geo mean) was 5960 ng·h/mL. For the same compound, the AUC(0-inf) ([7]; oral, 20 mg/kg, 20 mg/kg PZQ plus 200 mg ketoconazole, n = 9, read-out: AUCinf, treatment mean (SD)) was 6460 ng·h/mL, the AUC ([7]; oral, 20 mg/kg, 20 mg/kg PZQ plus 200 mg ketoconazole, n = 9, read-out: AUCt0‐tlast, treatment geo mean) was 4680 ng·h/mL and the AUC ([7]; oral, 20 mg/kg, 20 mg/kg PZQ plus 200 mg ketoconazole, n = 9, read-out: AUCt0‐tlast, treatment mean (SD)) was 4910 ng·h/mL. The CL/F ([7]; oral, 20 mg/kg, 20 mg/kg PZQ plus 200 mg ketoconazole, n = 9, read-out: Clearance/F, treatment geo mean (converted)) was 3340 mL/min, the CL/F ([7]; oral, 20 mg/kg, 20 mg/kg PZQ plus 200 mg ketoconazole, n = 9, read-out: Clearance/F, treatment mean (SD) (converted)) was 3530 mL/min and the k el ([7]; oral, 20 mg/kg, 20 mg/kg PZQ plus 200 mg ketoconazole, n = 9, read-out: Elimination rate constant, treatment geo mean (converted)) was 6.11e-05 s⁻¹. It also gave a k el ([7]; oral, 20 mg/kg, 20 mg/kg PZQ plus 200 mg ketoconazole, n = 9, read-out: Elimination rate constant, treatment mean (SD) (converted)) of 6.94e-05 s⁻¹, a half-life ([7]; oral, 20 mg/kg, 20 mg/kg PZQ plus 200 mg ketoconazole, n = 9, read-out: Half life, treatment geo mean (converted)) of 3.17 h and a half-life ([7]; oral, 20 mg/kg, 20 mg/kg PZQ plus 200 mg ketoconazole, n = 9, read-out: Half life, treatment mean (SD) (converted)) of 3.63 h. The Tmax ([7]; oral, 20 mg/kg, 20 mg/kg PZQ plus 200 mg ketoconazole, n = 9, read-out: T max, treatment geo mean) was 2.35 h, the Tmax ([7]; oral, 20 mg/kg, 20 mg/kg PZQ plus 200 mg ketoconazole, n = 9, read-out: T max, treatment mean (SD)) was 2.44 h and the Vd/F ([7]; oral, 20 mg/kg, 20 mg/kg PZQ plus 200 mg ketoconazole, n = 9, read-out: V d/F, treatment geo mean) was 915 L. The Vd/F ([7]; oral, 20 mg/kg, 20 mg/kg PZQ plus 200 mg ketoconazole, n = 9, read-out: V d/F, treatment mean (SD)) was 967 L, the AUC ([7]; oral, 20 mg/kg, AUC, PZQ alone) was 3850 ± 1430 ng·h/mL and the AUC ([7]; oral, 20 mg/kg, read-out: AUC from the in vivo pharmacokinetic study) was 3300 ng·h/mL. It also gave an AUC ([7]; oral, AUC, PZQ + KTZ) of 6460 ± 3100 ng·h/mL, an AUC(0-inf) ([7]; po, 20 mg/kg, single oral 20 mg/kg PZQ alone, n = 9, read-out: AUCinf, reference geo mean) of 3610 ng·h/mL and an AUC(0-inf) ([7]; po, 20 mg/kg, single oral 20 mg/kg PZQ alone, n = 9, read-out: AUCinf, reference mean (SD)) of 3850 ng·h/mL. The AUC ([7]; po, 20 mg/kg, single oral 20 mg/kg PZQ alone, n = 9, read-out: AUCt0‐tlast, reference geo mean) was 2970 ng·h/mL, the AUC ([7]; po, 20 mg/kg, single oral 20 mg/kg PZQ alone, n = 9, read-out: AUCt0‐tlast, reference mean (SD)) was 3150 ng·h/mL and the CL/F ([7]; po, 20 mg/kg, single oral 20 mg/kg PZQ alone, n = 9, read-out: Clearance/F, reference geo mean (converted)) was 5480 mL/min. The CL/F ([7]; po, 20 mg/kg, single oral 20 mg/kg PZQ alone, n = 9, read-out: Clearance/F, reference mean (SD) (converted)) was 5670 mL/min, the k el ([7]; po, 20 mg/kg, single oral 20 mg/kg PZQ alone, n = 9, read-out: Elimination rate constant, reference geo mean (converted)) was 8.33e-05 s⁻¹ and the k el ([7]; po, 20 mg/kg, single oral 20 mg/kg PZQ alone, n = 9, read-out: Elimination rate constant, reference mean (SD) (converted)) was 0.0001 s⁻¹. For the same compound, the half-life ([7]; po, 20 mg/kg, single oral 20 mg/kg PZQ alone, n = 9, read-out: Half life, reference geo mean (converted)) was 2.3 h, the half-life ([7]; po, 20 mg/kg, single oral 20 mg/kg PZQ alone, n = 9, read-out: Half life, reference mean (SD) (converted)) was 2.76 h and the Tmax ([7]; po, 20 mg/kg, single oral 20 mg/kg PZQ alone, n = 9, read-out: T max, reference geo mean) was 2.96 h. For the same compound, the Tmax ([7]; po, 20 mg/kg, single oral 20 mg/kg PZQ alone, n = 9, read-out: T max, reference mean (SD)) was 3 h, the Vd/F ([7]; po, 20 mg/kg, single oral 20 mg/kg PZQ alone, n = 9, read-out: V d/F, reference geo mean) was 1090 L and the Vd/F ([7]; po, 20 mg/kg, single oral 20 mg/kg PZQ alone, n = 9, read-out: V d/F, reference mean (SD)) was 1200 L. For the same compound, the “Clearance/F, reference mean (SD)” value ([7]; single oral 20 mg/kg PZQ alone, n = 9, 20 mg/kg) was 340 ± 97 L/h, the “C max, reference mean (SD)” value [7, 10] was 782.9 (171.7) ng/mL and the “Clearance/F, reference mean (SD)” value [7, 10] was 340.1 (96.37) L/h.
